Data set [1] relates to Bacillus mycoides. Put plainly: microbe, parasite or virus in culture. The data set is classed as cell-based.
Data set [2] has as its system colon cancer (HCT116). As to the kind of experiment: cells. The data set is classed as cell-based. The conditions noted are these: Homo sapiens.
Data set [3] deals with skin cancer (A431). As to the kind of experiment: cells. In kind it is cell-based. The conditions noted are these: Homo sapiens, A-431, 100 μg/mL, 48 h.
Data set [4] can be described thus: in vitro. To be noted: human, BJ1 normal skin fibroblast cells, 100 μg/mL. In kind it is cell-based.
Data set [5] relates to normal skin fibroblast cell line (BJ1). As to the kind of experiment: cells. In kind it is cell-based. The conditions noted are these: Homo sapiens, Skin fibroblast, MTT, 48 h.
The test system of data set [6] is PACA2. Put plainly: DNA damage, comet assay, PACA2. The data set is classed as cell-based, human.

Values after ≈ are worked out from the molar mass of the structure shown. Marks after values point to notes of the source that are not given here.

For the molecule `Cc1ccc(S(=O)(=O)NC(=O)Nc2ccc(C(F)(F)F)cc2)cc1` [Compound 7, 4-Methyl-N-[(4-{trifluoromethyl}phenyl)carbamoyl]benzenesulfonamide], in data set [1] (read-out: Inhibition zone), the zone of inhibition at 4.88 µg/mL was determined as 0 mm, the zone of inhibition at 9.75 µg/mL stood at 15 mm, the zone of inhibition at 19.5 µg/mL turned out to be 15 mm and the zone of inhibition at 39.1 µg/mL amounted to 16 mm. In addition, in data set [1] (read-out: Inhibition zone), the zone of inhibition at 78.1 µg/mL amounted to 16 mm, the zone of inhibition at 156.3 µg/mL is 18 mm, the zone of inhibition at 312.5 µg/mL came out at 20 mm and the zone of inhibition at 625 µg/mL was found to be 24 mm. In addition, in data set [1] (read-out: Inhibition zone), the zone of inhibition at 1250 µg/mL worked out at 26 mm, the zone of inhibition at 2500 µg/mL worked out at 27 mm, the zone of inhibition at 5000 µg/mL stood at 28 mm and the zone of inhibition at 10000 µg/mL is 29 mm. In data set [1] (read-out: Minimum inhibition concentration (MIC)), the MIC turned out to be 9.75 µg/mL (≈ 27.2 µM). This molecule gave a mortality at 100 µg/mL in data set [2] (HCT-116, 48 h, 100 μg/mL) of 100%. This molecule also came in with a half-maximal inhibitory concentration (IC50) in data set [2] (HCT-116, MTT, 48 h) of 93.5 ± 1.4 µM. In data set [3], the mortality at 100 µg/mL stood at 55.4 ± 1.25%. Also, in data set [4], the mortality at 48 h, 100 µg/mL worked out at 12.3 ± 1.12%. In data set [5], this molecule returned a concentration for half-maximal inhibition (IC50) of 48.8 ± 0.26 µM. Further, the “DNA damaged cells % (mean ± SEM)” value in data set [6] is given as 23.52 ± 0.65^a %. In data set [6] (of 400 cells analyzed), the “Class 0 (no tail), number of cells” value is 306; the “Class 1 (tail length < diameter of nucleus), number of cells” value turned out to be 35; the “Class 2 (tail length between 1 and 2 × the diameter of nucleus), number of cells” value was found to be 28; the “Class 3 (tail length > 2 × the diameter of nucleus), number of cells” value was determined as 31. Also, the “No. of cells, Comets” value in data set [6] (of 400 cells analyzed) stood at 94.
